Results taken from ChEMBL document CHEMBL3774329, “Synthesis and Evaluation of Oxyguanidine Analogues of the Cysteine Protease Inhibitor WRR-483 against Cruzain” (ACS Med Chem Lett, 2016).
pEC50: −log10 of the molar value. Active and inactive are the calls of the source. No cut-off for these calls is given here.

Legend:
[1] = biological target: T1, Cysteine proteinase 1 (Entamoeba histolytica) (UniProt Q01957); assay: Inhibition of Entamoeba histolytica cysteine protease1 using ZRR-AMC peptide as substrate assessed as release of AMC at 250 pM to 1 uM incubated for 15 mins by fluorometric analysis
T1 sequence (whole entry): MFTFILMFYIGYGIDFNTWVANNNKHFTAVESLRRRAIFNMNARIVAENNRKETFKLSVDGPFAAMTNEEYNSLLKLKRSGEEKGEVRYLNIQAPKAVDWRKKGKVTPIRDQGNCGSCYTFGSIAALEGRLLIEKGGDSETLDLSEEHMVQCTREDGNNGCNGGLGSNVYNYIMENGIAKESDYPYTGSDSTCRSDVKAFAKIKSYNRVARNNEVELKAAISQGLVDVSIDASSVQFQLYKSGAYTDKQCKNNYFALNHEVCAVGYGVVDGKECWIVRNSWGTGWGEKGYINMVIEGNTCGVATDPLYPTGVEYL

[2] = biological target: Cruzipain (Trypanosoma cruzi) (UniProt P25779); assay: Inhibition of His-tagged recombinant Trypanosoma cruzi cruzain using Z-Phe-Arg-AMC as substrate assessed as ratio of Kinact to Ki preincubated for 5 mins at pH 8 by spectrofluorometric analysis
Sequence of Cruzipain (Trypanosoma cruzi) (P25779 123-467 limits assumed): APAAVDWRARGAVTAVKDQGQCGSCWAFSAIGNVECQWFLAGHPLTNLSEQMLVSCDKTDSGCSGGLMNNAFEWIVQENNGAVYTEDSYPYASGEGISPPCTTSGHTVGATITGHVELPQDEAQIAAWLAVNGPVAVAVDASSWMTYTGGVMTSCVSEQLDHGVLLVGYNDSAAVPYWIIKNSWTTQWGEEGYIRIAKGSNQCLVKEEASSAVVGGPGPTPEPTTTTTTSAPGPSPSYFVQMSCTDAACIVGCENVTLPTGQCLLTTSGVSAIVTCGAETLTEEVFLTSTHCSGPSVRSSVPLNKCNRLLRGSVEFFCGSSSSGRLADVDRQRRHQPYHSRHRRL

[3] = biological target: Cruzipain (Trypanosoma cruzi) (UniProt P25779); assay: Inhibition of His-tagged recombinant Trypanosoma cruzi cruzain using Z-Phe-Arg-AMC as substrate assessed as ratio of Kinact to Ki preincubated for 5 mins at pH 5.5 by spectrofluorometric analysis
[4] = biological target: Cruzipain (Trypanosoma cruzi) (UniProt P25779); assay: Ratio of Kinact/Ki at pH 8 to Kinact/Ki at pH 5.5 for inhibition of His-tagged recombinant Trypanosoma cruzi cruzain
[5] = biological target: Cytochrome P450 2D6 (Homo sapiens, UniProt P10635); assay: Inhibition of CYP2D6 in human liver microsomes at 1 to 10 uM after 10 mins in presence of NADPH; assay type: ADME
Sequence of Cytochrome P450 2D6 (P10635 whole entry): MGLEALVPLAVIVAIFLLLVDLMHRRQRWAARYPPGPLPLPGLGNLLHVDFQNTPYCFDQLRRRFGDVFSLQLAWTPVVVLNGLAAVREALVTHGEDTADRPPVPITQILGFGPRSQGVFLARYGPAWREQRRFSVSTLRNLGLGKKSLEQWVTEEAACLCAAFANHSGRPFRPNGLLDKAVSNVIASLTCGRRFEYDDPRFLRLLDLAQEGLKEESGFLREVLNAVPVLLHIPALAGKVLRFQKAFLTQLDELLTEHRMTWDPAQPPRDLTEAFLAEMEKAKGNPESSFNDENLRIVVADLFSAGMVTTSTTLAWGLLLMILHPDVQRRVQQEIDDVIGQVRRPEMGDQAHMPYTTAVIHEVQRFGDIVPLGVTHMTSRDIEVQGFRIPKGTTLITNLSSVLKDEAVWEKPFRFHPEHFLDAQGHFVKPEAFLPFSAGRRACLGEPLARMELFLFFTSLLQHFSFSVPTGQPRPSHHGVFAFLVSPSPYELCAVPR

[6] = test system: Trypanosoma cruzi; assay: Antiparasitic activity against Trypanosoma cruzi CA-I/72 trypomastigote infected in mouse C2C12 cells after 72 hrs by DAPI-staining based microscopic analysis; assay type: functional, organism-based; conditions: CA-I/72, C2C12, 72 h
[7] = biological target: Cruzipain (Trypanosoma cruzi) (UniProt P25779); assay: Ratio of Kinact/Ki at pH 5.5 to Kinact/Ki at pH 8 for inhibition of His-tagged recombinant Trypanosoma cruzi cruzain
[8] = test system: Rattus norvegicus; assay: Drug level in Sprague-Dawley rat treated with WRR-668 at 3 mg/kg, iv over 8 hrs by LC-MS/MS analysis; assay type: ADME, organism-based; conditions: in vivo
[9] = biological target: Cytochrome P450 2C9 (Homo sapiens, UniProt P11712); assay: Inhibition of CYP2C9 in human liver microsomes at 1 to 10 uM after 10 mins in presence of NADPH; assay type: ADME
Sequence of Cytochrome P450 2C9 (P11712 whole entry): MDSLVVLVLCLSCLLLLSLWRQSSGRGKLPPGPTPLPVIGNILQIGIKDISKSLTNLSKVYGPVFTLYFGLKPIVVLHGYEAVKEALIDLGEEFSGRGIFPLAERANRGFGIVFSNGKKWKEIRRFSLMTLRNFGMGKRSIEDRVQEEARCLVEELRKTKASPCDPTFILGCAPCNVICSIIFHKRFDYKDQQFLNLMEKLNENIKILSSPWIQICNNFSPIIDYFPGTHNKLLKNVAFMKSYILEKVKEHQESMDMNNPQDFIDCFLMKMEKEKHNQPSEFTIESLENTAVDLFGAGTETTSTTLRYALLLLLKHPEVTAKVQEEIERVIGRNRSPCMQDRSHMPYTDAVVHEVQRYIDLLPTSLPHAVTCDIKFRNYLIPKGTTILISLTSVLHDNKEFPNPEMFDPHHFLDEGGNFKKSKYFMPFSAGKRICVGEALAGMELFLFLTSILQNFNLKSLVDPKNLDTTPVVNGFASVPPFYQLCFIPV

[10] = Stability of compound in mouse liver microsomes at 1 uM measured at 5 to 60 mins in presence of NADPH by LC-MS/MS analysis; assay type: ADME
[11] = test system: Plasma; assay: Drug degradation in C57BL/6 mouse plasma assessed as proteolytic cleavage in presence of EDTA by LC-MS/MS analysis; assay type: ADME, cell-free
[12] = test system: Liver microsome; assay: Stability of compound in rat liver microsomes at 1 uM measured at 5 to 60 mins in presence of NADPH by LC-MS/MS analysis; assay type: ADME
[13] = test system: Liver microsome; assay: Stability of compound in human liver microsomes at 1 uM measured at 5 to 60 mins in presence of NADPH by LC-MS/MS analysis; assay type: ADME
[14] = test system: Rattus norvegicus; assay: Drug metabolism in Sprague-Dawley rat assessed as WRR-671 formation at 3 mg/kg, iv over 8 hrs by LC-MS/MS analysis; assay type: ADME, organism-based; conditions: in vivo

Compound | Ratio [2] [M⁻¹ s⁻¹] | Ratio [3] [M⁻¹ s⁻¹] | Ratio [4] | inhibition (INH) [5] | other results
CN1CCN(C(=O)N[C@@H](CCCNC(=N)N)C(=O)N[C@H](/C=C/S(=O)(=O)c2ccccn2)CCc2ccccc2)CC1 | 3100 | 8100 |  |  | inhibition [1]: Active
CN1CCN(C(=O)N[C@@H](CCCCNC(=N)N)C(=O)N[C@H](/C=C/S(=O)(=O)c2ccccc2)CCc2ccccc2)CC1 | 59700 | 11000 | > 3 |  | 
CN1CCN(C(=O)N[C@@H](CCONC(=N)N)C(=O)N[C@H](/C=C/S(=O)(=O)c2ccccc2)CCc2ccccc2)CC1 | 138000 | 93100 |  |  | 
CONC(=N)NCCC[C@H](NC(=O)N1CCN(C)CC1)C(=O)N[C@H](/C=C/S(=O)(=O)c1ccccc1)CCc1ccccc1 | 65700 | 9100 | > 3 | Active | pEC50 [6]: 6.57
CN1CCN(C(=O)N[C@@H](CCCONC(=N)N)C(=O)N[C@H](/C=C/S(=O)(=O)c2ncccn2)CCc2ccccc2)CC1 | 1500 | 320000 |  |  | Ratio [7]: > 5
CN1CCN(C(=O)N[C@@H](CCCO)C(=O)N[C@H](/C=C/S(=O)(=O)c2ccccc2)CCc2ccccc2)CC1 |  |  |  |  | Drug metabolism [8]: metabolite_detected
CN1CCN(C(=O)N[C@@H](CCCNC(=N)N)C(=O)N[C@H](/C=C/S(=O)(=O)c2ccccc2)CCc2ccccc2)CC1 | 113000 | 36600 | > 3 |  | 
CN1CCN(C(=O)N[C@@H](Cc2ccccc2)C(=O)N[C@H](/C=C/S(=O)(=O)c2ccccc2)CCc2ccccc2)CC1 | 32500 | 158000 |  |  | Ratio [7]: > 5
CONC(=N)NCCC[C@H](NC(=O)N1CCN(C)CC1)C(=O)N[C@H](/C=C/S(=O)(=O)c1ccccn1)CCc1ccccc1 | 1.17e+06 | 25000 | > 3 | Active | inhibition (INH) [9]: Active; Stability [10]: Stable; inhibition [1]: Active; Stability [11]: Unstable; Stability [12]: Stable; Stability [13]: Stable
CN1CCN(C(=O)N[C@@H](CCCONC(=N)N)C(=O)N[C@H](/C=C/S(=O)(=O)c2ccccc2)CCc2ccccc2)CC1.Cl.Cl | 53400 | 43300 |  | Active | 
CN1CCN(C(=O)N[C@@H](CCCONC(=N)N)C(=O)N[C@H](/C=C/S(=O)(=O)c2ccccn2)CCc2ccccc2)CC1 | 308000 | 214000 |  | Active | Drug metabolism [14]: metabolite_detected; Stability [10]: Stable; inhibition [1]: Active; Stability [12]: Stable; Stability [13]: Stable
